We go through two molecules from patent publication US20210252045A1, “Method for inactivating and removing disease-related levels of sulfane sulfur from affected biological tissues with special relevance to Covid-19 virus infection” (priority 2019, published 2021).

For data set [1] the following is noted: sulfur dioxide gas in water at pH above 3; cited from earlier work.
Data set [2] concerns Rhinovirus of the common cold. Kind of data set: Ingesting sulfite at first symptoms of the common cold (inventor's self-administration). It counts as in vivo. The conditions noted are these: oral, 250 mg every 4 hours for 24 hours, started at first symptoms (within 48 hours); the inventor themself. The protocol:
It appears to be important that this be started within 48 hours of first appearance of the symptoms although data is lacking on using the agent later in the course of the infection. The stated quantities are effective but might be refined. The total quantity in the above example is equivalent to drinking 4 bottles of some wines or ingesting 500 gm of certain dried fruits. Application of this example to Covid 19 would be a first TREATMENT for this disease.

Turning to `O=S(O)O` [sulfurous acid], in data set [1], the pKa2 is listed as approximately 7.

Take `O=S([O-])S(=O)(=O)[O-].[K+].[K+]` [K. metabisulfite]: the “course of common cold symptoms after ingestion” value in data set [2] is listed as “symptoms clear without progressing to a full cold”.
